Test results taken from patent US11873521B2, “Steviol glycoside and production method therefor, and sweetener composition containing same” (SUNTORY HOLDINGS LIMITED, priority 2017, dated 2024).
Entries after “also recorded” stand apart in the source; their conditions may differ.

Tests used:
[1] = background art; cited from earlier work
[2] = samples adjusted to final Brix of 2 in terms of sucrose; cited from earlier work
[3] = Evaluation of flavors of novel steviol glycosides in powder forms; format: in vivo; settings: only β-form
Method: Flavors of Novel steviol glycosides 1 and 2 in powder forms were evaluated. Specifically, Compounds 15 (corresponding to Novel steviol glycoside 1) and 17 (corresponding to Novel steviol glycoside 2) obtained by chemical syntheses were subjected to high performance liquid chromatography (HPLC) to isolate only the β-form, which was made into a powder form and subjected to flavor evaluation. Panelists trained about sensory attributes of sweeteners members: Suntory Beverage and Food Ltd.) evaluated.

Solubility in water = format: physicochemical

SMILES | sweetness relative to sugar [1] | sweetness level assumed for preparing beverage samples [2] | undesirable flavor such as bitterness [3] | also measured
C=C1C[C@@]23CC[C@H]4[C@@](C)(CCC[C@@]4(C)C(=O)O[C@@H]4O[C@H](CO)[C@@H](O)[C@H](O)[C@H]4O)[C@@H]2CC[C@]1(O[C@@H]1O[C@H](CO)[C@@H](O)[C@H](O)[C@H]1O[C@@H]1O[C@H](CO)[C@@H](O)[C@H](O)[C@H]1O)C3 [Stevioside] | 250-300 times the sweetness of sugar |  |  | 
C=C1C[C@@]23CC[C@H]4[C@@](C)(CCC[C@@]4(C)C(=O)O[C@@H]4O[C@H](CO)[C@@H](O)[C@H](O)[C@H]4O[C@@H]4O[C@H](CO)[C@@H](O)[C@H](O)[C@H]4O)[C@@H]2CC[C@]1(O[C@@H]1O[C@H](CO)[C@@H](O)[C@H](O[C@@H]2O[C@H](CO)[C@@H](O)[C@H](O)[C@H]2O)[C@H]1O[C@@H]1O[C@H](CO)[C@@H](O)[C@H](O)[C@H]1O)C3 [Reb.D, rebaudioside D] |  | 250 |  | 
C=C1C[C@@]23CCC4[C@](C)(C(=O)O[C@@H]5OC(CO)[C@@H](O)[C@H](O[C@@H]6OC(CO)[C@@H](O)[C@H](O)C6O)C5O[C@@H]5OC(C)[C@H](O)[C@H](O)C5O)CCC[C@@]4(C)[C@@H]2CCC1(O[C@@H]1OC(CO)[C@@H](O)[C@H](O[C@@H]2OC(CO)[C@@H](O)[C@H](O)C2O)C1O[C@@H]1OC(C)[C@H](O)[C@H](O)C1O)C3 (some centres unmarked) [Compound 17] |  |  | less undesirable flavor such as bitterness | Presence of sweetness ([3]; listed as Novel steviol glycoside 2): had sweetness; also recorded: Present; Flavor characteristics ([3]; listed as Novel steviol glycoside 2, bitterness): No bitterness; Flavor characteristics ([3]; listed as Novel steviol glycoside 2, overall flavor): Flavor resembled the mixture
C=C1C[C@@]23CC[C@H]4[C@@](C)(CCC[C@@]4(C)C(=O)O[C@@H]4O[C@H](CO)[C@@H](O)[C@H](O)[C@H]4O)[C@@H]2CC[C@]1(O[C@@H]1O[C@H](CO)[C@@H](O)[C@H](O[C@@H]2O[C@H](CO)[C@@H](O)[C@H](O)[C@H]2O)[C@H]1O[C@@H]1O[C@H](CO)[C@@H](O)[C@H](O)[C@H]1O)C3 [Reb.A, rebaudioside A] | 350-450 times the sweetness of sugar | 300 |  | 
C=C1C[C@@]23CCC4[C@](C)(C(=O)O[C@@H]5OC(CO)[C@@H](O)[C@H](O)C5O[C@@H]5OC(C)[C@H](O)[C@H](O)C5O)CCC[C@@]4(C)[C@@H]2CCC1(O[C@@H]1OC(CO)[C@@H](O)[C@H](O[C@@H]2OC(CO)[C@@H](O)[C@H](O)C2O)C1O[C@@H]1OC(C)[C@H](O)[C@H](O)C1O)C3 (some centres unmarked) [Compound 15] |  |  | less undesirable flavor such as bitterness | solubility in water (Solubility in water): did not dissolve in water sufficiently; Presence of sweetness ([3]; listed as Novel steviol glycoside 1): had sweetness; also recorded: Present
